These results are taken from patent publication US11040981B2, “Pyrrolotriazine compounds and methods of inhibiting TAM kinases” (Syros Pharmaceuticals, Inc., priority 2017, dated 2021).

Test [1] addresses T1, TYRO3 (Homo sapiens, UniProt Q06418).
T1 sequence (Q06418 41-890): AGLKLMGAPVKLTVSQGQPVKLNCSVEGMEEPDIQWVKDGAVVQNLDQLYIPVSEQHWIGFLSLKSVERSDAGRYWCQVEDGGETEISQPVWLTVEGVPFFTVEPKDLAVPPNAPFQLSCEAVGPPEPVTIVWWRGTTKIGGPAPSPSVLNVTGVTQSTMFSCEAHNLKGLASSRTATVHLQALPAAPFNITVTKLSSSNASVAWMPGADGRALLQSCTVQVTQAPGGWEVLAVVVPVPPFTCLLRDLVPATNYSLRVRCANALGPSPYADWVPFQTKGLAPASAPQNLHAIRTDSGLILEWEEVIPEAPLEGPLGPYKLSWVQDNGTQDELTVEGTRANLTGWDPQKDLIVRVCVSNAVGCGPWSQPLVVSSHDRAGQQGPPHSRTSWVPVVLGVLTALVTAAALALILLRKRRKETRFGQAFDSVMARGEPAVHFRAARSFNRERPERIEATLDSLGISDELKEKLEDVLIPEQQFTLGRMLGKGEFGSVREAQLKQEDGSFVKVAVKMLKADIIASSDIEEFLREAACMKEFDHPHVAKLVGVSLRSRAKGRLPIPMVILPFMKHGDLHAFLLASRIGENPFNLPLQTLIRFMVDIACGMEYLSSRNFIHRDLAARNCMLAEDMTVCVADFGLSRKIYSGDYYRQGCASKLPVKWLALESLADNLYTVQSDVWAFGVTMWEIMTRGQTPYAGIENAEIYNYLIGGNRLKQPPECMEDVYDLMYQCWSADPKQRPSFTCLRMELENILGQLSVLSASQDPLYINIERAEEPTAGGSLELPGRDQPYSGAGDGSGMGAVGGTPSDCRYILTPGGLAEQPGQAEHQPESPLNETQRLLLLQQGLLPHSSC
The experiment in a line: TR-FRET kinase activity assay, TYRO3. Format: biochemical. As to conditions: ATP at Km, 60 minutes. The procedure, abridged:
(§1)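 Enzyme + labelled peptide + cpd premixed; ATP at per-enzyme Km starts rxn. 60 min RT, HEPES pH 7.5/MgCl2/EGTA/Brij 35/DTT buffer. Stop 12.5 mM EDTA, Eu phospho-Ab 30 min dark, TR-FRET read → IC50.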
For orientation: In TR-FRET formats the signal depends on donor and acceptor labels being close together.

The target in test [2] is T2, MERTK (Homo sapiens, UniProt Q12866).
T2 sequence (Q12866 21-999): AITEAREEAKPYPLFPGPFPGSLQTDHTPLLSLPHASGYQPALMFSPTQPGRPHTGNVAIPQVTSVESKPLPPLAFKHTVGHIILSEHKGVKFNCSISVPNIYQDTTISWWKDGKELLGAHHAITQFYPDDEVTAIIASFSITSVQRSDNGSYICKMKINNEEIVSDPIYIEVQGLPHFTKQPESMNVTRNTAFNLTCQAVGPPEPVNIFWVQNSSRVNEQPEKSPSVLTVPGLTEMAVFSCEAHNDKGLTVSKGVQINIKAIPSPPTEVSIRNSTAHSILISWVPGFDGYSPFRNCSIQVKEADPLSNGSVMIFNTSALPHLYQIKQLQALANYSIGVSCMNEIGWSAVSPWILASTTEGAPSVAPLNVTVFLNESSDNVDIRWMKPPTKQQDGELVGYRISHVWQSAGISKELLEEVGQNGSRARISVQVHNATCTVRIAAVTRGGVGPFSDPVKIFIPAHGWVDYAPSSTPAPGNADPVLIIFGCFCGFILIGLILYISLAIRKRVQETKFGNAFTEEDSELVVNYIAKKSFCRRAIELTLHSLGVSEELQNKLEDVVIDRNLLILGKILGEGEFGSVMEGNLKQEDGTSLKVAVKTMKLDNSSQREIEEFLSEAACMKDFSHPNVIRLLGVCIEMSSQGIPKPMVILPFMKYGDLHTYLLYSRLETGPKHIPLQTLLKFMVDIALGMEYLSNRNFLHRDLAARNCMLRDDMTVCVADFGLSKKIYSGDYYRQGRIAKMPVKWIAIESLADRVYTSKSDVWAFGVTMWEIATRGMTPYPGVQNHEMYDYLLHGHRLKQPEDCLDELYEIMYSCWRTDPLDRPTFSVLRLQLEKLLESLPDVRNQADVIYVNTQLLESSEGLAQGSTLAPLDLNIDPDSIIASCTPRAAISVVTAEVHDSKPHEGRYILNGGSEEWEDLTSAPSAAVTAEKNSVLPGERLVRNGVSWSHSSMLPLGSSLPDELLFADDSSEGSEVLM
The experiment in a line: TR-FRET kinase activity assay, MERTK. Format: biochemical. As to conditions: for IC50: TR-FRET activity assay, ATP at Km, 60 minutes, read-out: Mer IC50. The procedure, abridged: as §1

The mark [3] stands for this setting: ratio calculated as FLT3 IC50/Mer IC50.
The mark [4] stands for this setting: ratio of Mer to FLT3: FLT3 IC50/Mer IC50.

Structures are written as SMILES.

In the case of `COC[C@H](C)Nc1ncc2c(-c3ccnc(N4CCN(C5COC5)CC4)c3)cc([C@H]3CC[C@H](O)CC3)n2n1` [Compound 486], the IC50 in test [1] and in test [2] was not above 100 nM in each case. In addition, the “FLT3/Mer ratio (FLT3 IC50/Mer IC50)” value in test [2] (setting [3]) was “+++ (“+++” represents a ratio of >100)”.

For the compound `COC[C@H](C)Nc1ncc2c(C3=C[C@H]4CC[C@@H](C3)N4CC(F)(F)F)cc([C@H]3CC[C@H](O)CC3)n2n1` [Compound 492], the IC50 in test [1] and in test [2] was not above 100 nM each time. In addition, the “FLT3/Mer ratio (FLT3 IC50/Mer IC50)” value in test [2] (setting [3]) was “+++ (“+++” represents a ratio of >100)”.

As for `COC[C@H](C)Nc1ncc2c(-c3ccnc(N4Cc5nc(C)sc5C4)c3)cc([C@H]3CC[C@H](O)CC3)n2n1` [Compound 479, (trans)-4-(2-(((S)-1-methoxypropan-2-yl)amino)-5-(2-(2-methyl-4H-pyrrolo[3,4-d]thiazol-5(6H)-yl)pyridin-4-yl)pyrrolo[2,1-f][1,2,4]triazin-7-yl)cyclohexanol], the IC50 in test [1] and in test [2] was not above 100 nM in each case. For the same compound, in test [2] (setting [3]), the “FLT3/Mer ratio (FLT3 IC50/Mer IC50)” value is “+++ (“+++” represents a ratio of >100)”.

Regarding `COC[C@H](C)Nc1ncc2c(-c3cnn(C(C)(C)c4nnc(C)o4)c3)cc([C@H]3CC[C@H](O)CC3)n2n1` [Compound 440], the IC50 in test [1] and in test [2] was not above 100 nM in each case. Also, the “FLT3/Mer ratio (FLT3 IC50/Mer IC50)” value in test [2] (setting [3]) was “+++ (“+++” represents a ratio of >100)”.

As for `COC[C@H](C)Nc1ncc2c(-c3cnn(C4COC4)c3)cc(C3CCOCC3)n2n1` [Compound 503], the half-inhibitory concentration (IC50) in test [1] and in test [2] was not above 100 nM each time. Besides, the “FLT3/Mer ratio (FLT3 IC50/Mer IC50)” value in test [2] (setting [3]) is listed as “+++ (“+++” represents a ratio of >100)”.

Regarding `COC[C@H](C)Nc1ncc2c([C@H]3CC[C@@H](C(=O)N4CCOCC4)CC3)cc([C@H]3CC[C@H](O)CC3)n2n1` [Compound 484], the IC50 in test [1] and in test [2] was not above 100 nM throughout. Besides, the “FLT3/Mer ratio (FLT3 IC50/Mer IC50)” value in test [2] (setting [3]) was “+++ (“+++” represents a ratio of >100)”.

For `CC[C@H](C)Nc1ncc2c(C3=CCNCC3)cc([C@H]3CC[C@H](O)CC3)n2n1` [Compound 130], the IC50 in test [1] and in test [2] was not above 100 nM in each case. The “FLT3/Mer ratio (FLT3 IC50/Mer IC50)” value in test [2] (setting [4]) is “+++ (“+++” represents a ratio of >100)”.

Consider `CCC1(Nc2ncc3c(-c4ccc(CN5CCN(C)CC5)cc4)cc([C@H]4CC[C@H](O)CC4)n3n2)CCC1` [Compound 126], for which the results for the IC50 in test [1] and in test [2] were 100 to 1000 nM and not above 100 nM, respectively. The “FLT3/Mer ratio (FLT3 IC50/Mer IC50)” value in test [2] (setting [4]) was “++ (“++” represents a ratio of between 10 and 100)”.

For the compound `C[C@@H](CC(F)(F)F)Nc1ncc2c(C3=C[C@@H]4CC[C@H](C3)N4)cc([C@H]3CC[C@H](O)CC3)n2n1` [Compound 499], the half-maximal inhibitory concentration (IC50) in test [1] and in test [2] was not above 100 nM each time. Besides, in test [2] (setting [3]), the “FLT3/Mer ratio (FLT3 IC50/Mer IC50)” value is given as “+++ (“+++” represents a ratio of >100)”.

For the compound `COC[C@H](C)Nc1ncc2c(-c3cnn(C(C)(C)C(=O)N4Cc5nc(C)sc5C4)c3)cc([C@H]3CC[C@H](O)CC3)n2n1` [Compound 495], the IC50 in test [1] and in test [2] was not above 100 nM in each case. In addition, the “FLT3/Mer ratio (FLT3 IC50/Mer IC50)” value in test [2] (setting [3]) is on record as “+++ (“+++” represents a ratio of >100)”.

As for `COC[C@H](C)Nc1ncc2c(-c3cnn(C[C@@H]4CCO4)c3)cc([C@H]3CC[C@H](O)CC3)n2n1` [Compound 474], the IC50 in test [1] and in test [2] was not above 100 nM in each case. The “FLT3/Mer ratio (FLT3 IC50/Mer IC50)” value in test [2] (setting [3]) is given as “+++ (“+++” represents a ratio of >100)”.
